Assay results published in ChEMBL document CHEMBL3045609, “Synthesis and fungicidal activity of tubulin polymerisation promoters. Part 1: pyrido[2,3-b]pyrazines” (2010).
Converted amounts (≈) assume the structure as drawn.

What was measured:
Type in all cases: functional
[1] = tested on: Puccinia triticina; assay: Antifungal activity against Puccinia triticina infected 2 weeks old wheat plant assessed as reduction of diseased leaf area treated 1 day before infection measured after 11 days
[2] = tested on: Pyricularia grisea; assay: Antifungal activity against Magnaporthe grisea infected 3 weeks old rice plant assessed as reduction of diseased leaf area treated 2 days before infection measured after 6 days
[3] = tested on: Zymoseptoria tritici; assay: Antifungal activity against Zymoseptoria tritici infected 2 weeks old wheat plant assessed as reduction of diseased leaf area treated 1 day before infection measured after 16 to 18 days

Compound | EC80 [1] [µg/mL] | EC80 [2] [µg/mL] | EC80 [3] [µg/mL]
CC(C)CNc1c(-c2cc(F)ccc2F)c(F)nc2nccnc12 | 118 (≈ 355 µM) | > 200 | 80 (≈ 241 µM)
CC(C)[C@@H](C)Nc1c(-c2c(F)cc(F)cc2F)c(F)nc2nccnc12 | < 6 | 11 (≈ 30.2 µM) | < 2
C[C@H](Nc1c(-c2c(F)cc(F)cc2F)c(F)nc2nccnc12)C(F)(F)F | 39 (≈ 99.9 µM) | 35 (≈ 89.7 µM) | 5 (≈ 12.8 µM)
CC(C)C(C)Nc1c(-c2c(F)cc(F)cc2F)c(F)nc2nccnc12 (configuration not stated) | < 20 | 26 (≈ 71.4 µM) | 15 (≈ 41.2 µM)
Fc1cc(F)c(-c2c(F)nc3nccnc3c2NC(C2CC2)C(F)(F)F)c(F)c1 (configuration not stated) | 16 (≈ 38.4 µM) | 104 (≈ 250 µM) | < 6
CC(C)CNc1c(-c2cccc(F)c2F)c(F)nc2nccnc12 | 157 (≈ 472 µM) | > 200 | 74 (≈ 223 µM)
C=CCOC(=O)[C@@H](Nc1c(-c2c(F)cc(F)cc2F)c(F)nc2nccnc12)C(C)C | 31 (≈ 71.4 µM) | 110 (≈ 253 µM) | 21 (≈ 48.3 µM)
Fc1cc(F)c(-c2c(F)nc3nccnc3c2NCC(F)(F)F)c(F)c1 | 20 (≈ 53.2 µM) | 11 (≈ 29.2 µM) | 16 (≈ 42.5 µM)
CCC(C)Nc1c(-c2c(F)cc(F)cc2F)c(F)nc2nccnc12 (configuration not stated) | 56 (≈ 160 µM) | 9 (≈ 25.7 µM) | 26 (≈ 74.2 µM)
COc1nc2nccnc2c(NCC(C)C)c1-c1ncc(Cl)cc1F | > 200 | 29 (≈ 80.2 µM) | 10 (≈ 27.6 µM)
COc1nc2nccnc2c(N[C@H](C)C(C)C)c1-c1c(F)cc(F)cc1F | 129 (≈ 343 µM) | 100 (≈ 266 µM) | 32 (≈ 85 µM)
COC(=O)[C@@H](Nc1c(-c2c(F)cc(F)cc2F)c(F)nc2nccnc12)C(C)C | < 6 | 57 (≈ 140 µM) | 7 (≈ 17.1 µM)
CCC(Nc1c(-c2c(F)cc(F)cc2F)c(F)nc2nccnc12)C(F)(F)F (configuration not stated) | 10 (≈ 24.7 µM) | 10 (≈ 24.7 µM) | < 2
COc1nc2nccnc2c(NCC(C)C)c1-c1c(F)cc(F)cc1F | 35 (≈ 96.6 µM) | 42 (≈ 116 µM) | 50 (≈ 138 µM)
COc1nc2nccnc2c(NCC(C)C)c1-c1c(F)cccc1Cl | 134 (≈ 371 µM) | 110 (≈ 305 µM) | > 200
CC(C)(C)Nc1c(-c2c(F)cc(F)cc2F)c(F)nc2nccnc12 | > 200 | 35 (≈ 99.9 µM) | 19 (≈ 54.2 µM)
COc1nc2nccnc2c(N[C@H](C)C(C)C)c1-c1ncc(Cl)cc1Cl | 26 (≈ 66.3 µM) | 15 (≈ 38.2 µM) | < 6
COc1nc2nccnc2c(NCC(C)C)c1C#Cc1ccccc1 | > 200 | > 200 | 67 (≈ 202 µM)
CC(C)[C@@H](C)Nc1c(-c2c(F)cc(F)cc2F)c(Cl)nc2nccnc12 | 77 (≈ 202 µM) | > 200 | 47 (≈ 123 µM)
